From patent publication US20120004282A1, “RNA Interference Mediated Inhibition of the Intercellular Adhesion Molecule 1 (ICAM-1) Gene Expression Using Short Interfering Nucleic Acid (siNA)” (Merck Sharp & Dohme Corp,, priority 2009, published 2012)
[invAb] = inverted abasic unit; m = 2'-O-methyl; r = 2'-OH (RNA); f = 2'-fluoro

System: ICAM-1 mRNA
Assay: ICAM-1 mRNA knock-down in transfected Calu-1 cells (Taqman RT-PCR)
Format: cell-based, human
Conditions: Calu-1 cells, 10 nM siNA, 24 hrs post-transfection, mean ± S.D., relative to non-targeting control
Method: Calu-1 (human; ATCC cat# HTB-54): Cells were cultured at 37° C. in the presence of 5% CO2 and grown in McCoy's 5a medium supplemented with fetal bovine serum at a final concentration of 10% and 100 μg/mL of streptomycin and 100 U/mL penicillin.
All transfections were performed using RNAiMax (Invitrogen Cat# 13778-150) as per the manufacturer's instructions.
Calu-1 cells were plated in all wells of a tissue-culture treated, 96-well plate at final counts of 5,000 cells/well in 100 μL of appropriate culture media. Cells were cultured for 24 hours after plating at 37° C. in the presence of 5% CO2.
After 24 hours, complexes containing siNA and RNAiMax were created as follows. A solution of RNAiMax diluted 33-fold in OPTI-MEM was prepared. In parallel, solutions of the siNAs for testing were prepared to a final concentration of 120 nM in OPTI-MEM. After incubation of RNAiMax/OPTI-MEM solution at room temperature for 5 min, an equal volume of the siNA solution and the RNAiMax solution were added together for each of the siNAs. […] This solution was incubated at room temperature for 20 minutes. After incubation, 20 uL of the solution was added to each of the relevant wells. The final concentration of siNA in each well was 10 nM and the final volume of RNAiMax in each well was 0.3 uL.
The time of incubation with the RNAiMax-siNA complexes was 24 hours, unless otherwise indicated. There was no change in media between the transfection and harvesting of the cells unless otherwise indicated.
Dose response curves were carried out in a similar fashion in 96-well plates, while maintaining a constant amount of RNAiMax in each transfection.
RNA was extracted from a 96-well plate using the TaqMan® Gene Expression Cells-to-CT™ Kit (Cat# 4399002) with a modified protocol. Briefly, a 60 uL (1 plate) or 110 uL (2 plates) of the Lysis Solution with DNase I was dispensed into each well of the Lysis Buffer Plate (twin.tec full skirt plate). The lysis buffer and stop plates were stored at 4° C. until the cells were washed.
The plate was spun at 1100 rpm for 5 minutes. The culture medium was aspirated and discarded from the wells of the culture plate. The lysis was performed automatically using a BioMek FX instrument and method. After the Biomek method was completed, the lysis plate was incubated for 2 min. at room temperature. The lysis plate can be stored for 2 hours at 4° C., or at −20° C. or −80° C. for two months.
Each well of the reverse transcription plate required 10 uL of 2× reverse transcriptase Buffer, 1 uL of 20× reverse transcription enzyme and 2 uL of nuclease-free water. The reverse transcription master mix was prepared by mixing 2× reverse transcription buffer, 20× reverse transcription enzyme mix, and nuclease-free water. 13 uL of the reverse transcription master mix was dispensed into each well of the reverse transcription plate (semi-skirted). A separate reverse transcription plate was prepared for each cell plate. The plate was loaded onto a Biomek NX or Biomek FX Dual-96 and the Biomek method was run. The program is programmed to automatically added 7 uL of lysate from the cell lysis procedure described above into each well of the reverse transcription plate. The plate is sealed and spun on a centrifuge (1000 rpm for 30 seconds) to settle the contents to the bottom of the reverse transcription plate. The plate is placed in a thermocycler at 37° C. for 60 min, 95° C. for 5 min, and 4° C. until the plate is removed from the thermocycler. Upon removal, if not used immediately, the plate was frozen at −20° C.
A series of probes and primers were used to detect the various mRNA transcripts of the genes of ICAM-1 and ICAM-2 in human cell lines (see Table 2). All the Taqman probes and primers for the experiments here-in described were supplied as pre-validated sets by Applied Biosystems, Inc., (see Table 2). The assays were performed on an ABI 7900 instrument, according to the manufacturer's instructions. […]

Point of comparison: “48720-DC: siNA duplex, ICAM-1 target site 1609 (h); sense B GuGucuAAAGGAuGGcAcu TTB; antisense AGUGccAuccuuuAGAcAcUU (sense GUGUCUAAAGGAUGGCACUTT; antisense AGUGCCAUCCUUUAGACACUU; sense: DNA at AGT, 2'-fluoro at CU, [invAb] at 5' end, 3' end, backbone not given here; antisense: sugars from the 5' end rrrmffmffffffmmmfmfmm, backbone not given here)”, “% KD Human” value 48 ± 20%. Against it:
- 48714-DC: siNA duplex, ICAM-1 target site 1089 (m); sense B GGGucGAAGGuGGuucuuc TTB; antisense GAAGAAccAccuucGAcccUU (sense GGGUCGAAGGUGGUUCUUCTT; antisense GAAGAACCACCUUCGACCCUU; sense: DNA at AGT, 2'-fluoro at CU, [invAb] at 5' end, 3' end, backbone not given here; antisense: sugars from the 5' end rrrmmmffmfffffmmfffmm, backbone not given here) — the same, 48 ± 22%
- 29291-DC: siNA duplex, ICAM-1 target site 2120 (h); sense B GAucuGuAGucAcAuGAcu TTB; antisense AGUcAuGuGAcuAcAGAucUU (sense GAUCUGUAGUCACAUGACUTT; antisense AGUCAUGUGACUACAGAUCUU; sense: DNA at AGT, 2'-fluoro at CU, [invAb] at 5' end, 3' end, backbone not given here; antisense: sugars from the 5' end rrrfmfmfmmffmfmmmffmm, backbone not given here) — higher, 84 ± 7%
- 29281-DC: siNA duplex, ICAM-1 target site 1650 (h); sense B cAGuGAcuGucAcucGAGA TTB; antisense UCUcGAGuGAcAGucAcuGUU (sense CAGUGACUGUCACUCGAGATT; antisense UCUCGAGUGACAGUCACUGUU; sense: DNA at AGT, 2'-fluoro at CU, [invAb] at 5' end, 3' end, backbone not given here; antisense: sugars from the 5' end rrrfmmmfmmfmmffmffmmm, backbone not given here) — within error, 45 ± 21%
- 48698-DC: siNA duplex, ICAM-1 target site 1611 (m); sense B AGAAAGAucAGGAuAuAcA TTB; antisense UGUAuAuccuGAucuuucuUU (sense AGAAAGAUCAGGAUAUACATT; antisense UGUAUAUCCUGAUCUUUCUUU; sense: DNA at AGT, 2'-fluoro at CU, [invAb] at 5' end, 3' end, backbone not given here; antisense: sugars from the 5' end rrrmfmffffmmfffffffmm, backbone not given here) — within error, 34 ± 6%
- 48697-DC: siNA duplex, ICAM-1 target site 1641 (m); sense B GcucAGGAGGAGGccAuAA TTB; antisense UUAuGGccuccuccuGAGcUU (sense GCUCAGGAGGAGGCCAUAATT; antisense UUAUGGCCUCCUCCUGAGCUU; sense: DNA at AGT, 2'-fluoro at CU, [invAb] at 5' end, 3' end, backbone not given here; antisense: sugars from the 5' end rrrfmmfffffffffmmmfmm, backbone not given here) — lower, 14 ± 11%
- 48717-DC: siNA duplex, ICAM-1 target site 911 (m); sense B GGuGAcuGAGGAGuucGAc TTB; antisense GUCGAAcuccucAGucAccUU (sense GGUGACUGAGGAGUUCGACTT; antisense GUCGAACUCCUCAGUCACCUU; sense: DNA at AGT, 2'-fluoro at CU, [invAb] at 5' end, 3' end, backbone not given here; antisense: sugars from the 5' end rrrmmmffffffmmffmffmm, backbone not given here) — lower, −9 ± 17%
- 48726-DC: siNA duplex, ICAM-1 target site 1217 (h); sense B GAGAcAcuGcAGAcAGuGA TTB; antisense UCAcuGucuGcAGuGucucUU (sense GAGACACUGCAGACAGUGATT; antisense UCACUGUCUGCAGUGUCUCUU; sense: DNA at AGT, 2'-fluoro at CU, [invAb] at 5' end, 3' end, backbone not given here; antisense: sugars from the 5' end rrrffmfffmfmmfmffffmm, backbone not given here) — within error, 64 ± 16%
- 48723-DC: siNA duplex, ICAM-1 target site 390 (h); sense B cuGGcAAuGcccAGAcAuc TTB; antisense GAUGucuGGGcAuuGccAGUU (sense CUGGCAAUGCCCAGACAUCTT; antisense GAUGUCUGGGCAUUGCCAGUU; sense: DNA at AGT, 2'-fluoro at CU, [invAb] at 5' end, 3' end, backbone not given here; antisense: sugars from the 5' end rrrmfffmmmfmffmffmmmm, backbone not given here) — within error, 68 ± 12%
- 48704-DC: siNA duplex, ICAM-1 target site 395 (m); sense B cGuGuAuucGuuuccGGAG TTB; antisense CUCcGGAAAcGAAuAcAcGUU (sense CGUGUAUUCGUUUCCGGAGTT; antisense CUCCGGAAACGAAUACACGUU; sense: DNA at AGT, 2'-fluoro at CU, [invAb] at 5' end, 3' end, backbone not given here; antisense: sugars from the 5' end rrrfmmmmmfmmmfmfmfmmm, backbone not given here) — within error, 33 ± 22%
- 48708-DC: siNA duplex, ICAM-1 target site 1762 (m); sense B AcAGcAuuuAcccucAGcc TTB; antisense GGCuGAGGGuAAAuGcuGuUU (sense ACAGCAUUUACCCUCAGCCTT; antisense GGCUGAGGGUAAAUGCUGUUU; sense: DNA at AGT, 2'-fluoro at CU, [invAb] at 5' end, 3' end, backbone not given here; antisense: sugars from the 5' end rrrfmmmmmfmmmfmffmfmm, backbone not given here) — within error, 22 ± 9%
- 48703-DC: siNA duplex, ICAM-1 target site 394 (m); sense B ccGuGuAuucGuuuccGGA TTB; antisense UCCGGAAAcGAAuAcAcGGUU (sense CCGUGUAUUCGUUUCCGGATT; antisense UCCGGAAACGAAUACACGGUU; sense: DNA at AGT, 2'-fluoro at CU, [invAb] at 5' end, 3' end, backbone not given here; antisense: sugars from the 5' end rrrmmmmmfmmmfmfmfmmmm, backbone not given here) — within error, 30 ± 15%
- 29283-DC: siNA duplex, ICAM-1 target site 1811 (h); sense B cucAGcAcGuAccucuAuA TTB; antisense UAUAGAGGuAcGuGcuGAGUU (sense CUCAGCACGUACCUCUAUATT; antisense UAUAGAGGUACGUGCUGAGUU; sense: DNA at AGT, 2'-fluoro at CU, [invAb] at 5' end, 3' end, backbone not given here; antisense: sugars from the 5' end rrrmmmmmfmfmfmffmmmmm, backbone not given here) — within error, 63 ± 8%
